Results from PubChem BioAssay (NCI).
Where “and” joins values, the source holds several entries; their conditions need not be identical. Equal values may be shown once.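 Briefly, cells in 96-well plates were exposed to five compound concentrations for 48 h, and endpoints were estimated by linear interpolation. GI50 marks 50% less growth. TGI marks complete inhibition of growth.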

Legend:
Experiment in all cases: growth of human tumour cells (NCI), 48 h
TK-10 renal = system: TK-10 renal
PC-3 prostate = system: PC-3 prostate
DU-145 prostate = system: DU-145 prostate
UACC-257 melanoma = system: UACC-257 melanoma
MALME-3M melanoma = system: MALME-3M melanoma
MOLT-4 leukemia = system: MOLT-4 leukemia
ACHN renal = system: ACHN renal
HCT-116 colon = system: HCT-116 colon
HOP-62 NSCLC = system: HOP-62 NSCLC
CCRF-CEM leukemia = system: CCRF-CEM leukemia
EKVX NSCLC = system: EKVX NSCLC
RXF 393 renal = system: RXF 393 renal
M14 melanoma = system: M14 melanoma
COLO 205 colon = system: COLO 205 colon
SK-MEL-2 melanoma = system: SK-MEL-2 melanoma
SNB-75 CNS = system: SNB-75 CNS
KM12 colon = system: KM12 colon
SF-295 CNS = system: SF-295 CNS
SK-MEL-28 melanoma = system: SK-MEL-28 melanoma
MDA-MB-435 = system: MDA-MB-435
UACC-62 melanoma = system: UACC-62 melanoma
786-0 renal = system: 786-0 renal
SW-620 colon = system: SW-620 colon
SN12C renal = system: SN12C renal
OVCAR-5 ovarian = system: OVCAR-5 ovarian
SF-539 CNS = system: SF-539 CNS
SF-268 CNS = system: SF-268 CNS
BT-549 breast = system: BT-549 breast
A549 NSCLC = system: A549 NSCLC
MCF7 breast = system: MCF7 breast
HS 578T breast = system: HS 578T breast
U251 CNS = system: U251 CNS
OVCAR-3 ovarian = system: OVCAR-3 ovarian
LOX IMVI melanoma = system: LOX IMVI melanoma
NCI-H460 lung = system: NCI-H460 lung
CAKI-1 renal = system: CAKI-1 renal
RPMI-8226 leukemia = system: RPMI-8226 leukemia
NCI/ADR-RES ovarian = system: NCI/ADR-RES ovarian
OVCAR-8 ovarian = system: OVCAR-8 ovarian
NCI-H522 lung = system: NCI-H522 lung
HT29 colon = system: HT29 colon
UO-31 renal = system: UO-31 renal
K-562 leukemia = system: K-562 leukemia
NCI-H23 lung = system: NCI-H23 lung
T-47D breast = system: T-47D breast
A498 renal = system: A498 renal
NCI-H226 lung = system: NCI-H226 lung
HCC-2998 colon = system: HCC-2998 colon
SNB-19 CNS = system: SNB-19 CNS
OVCAR-4 ovarian = system: OVCAR-4 ovarian
HCT-15 colon = system: HCT-15 colon
SK-MEL-5 melanoma = system: SK-MEL-5 melanoma
MDA-N = system: MDA-N
SR leukemia = system: SR leukemia
HL-60(TB) leukemia = system: HL-60(TB) leukemia
MDA-MB-231 breast = system: MDA-MB-231 breast
IGROV1 ovarian = system: IGROV1 ovarian
SK-OV-3 ovarian = system: SK-OV-3 ovarian

`Nc1ccc(Cc2ccc(N=Cc3ccc(OCc4cccc(COc5ccc(C=Nc6ccc(Cc7ccc(N)cc7)cc6)cc5)n4)cc3)cc2)cc1` was tested, and the TGI (TK-10 renal) was over 100 µM, the TGI (PC-3 prostate) was over 100 µM and the TGI (DU-145 prostate) was over 100 µM. It also gave a TGI (UACC-257 melanoma) of over 100 µM, a TGI (MALME-3M melanoma) of over 100 µM and a TGI (MOLT-4 leukemia) of over 100 µM. It also gave a TGI (ACHN renal) of over 100 µM, a TGI (HCT-116 colon) of over 100 µM and a TGI (HOP-62 NSCLC) of over 100 µM. For the same compound, the TGI (CCRF-CEM leukemia) was over 100 µM, the TGI (EKVX NSCLC) was over 100 µM and the TGI (RXF 393 renal) was 68 µM. For the same compound, the TGI (M14 melanoma) was over 100 µM, the TGI (COLO 205 colon) was over 100 µM and the TGI (SK-MEL-2 melanoma) was over 100 µM. It also gave a TGI (SNB-75 CNS) of 39.7 µM, a TGI (KM12 colon) of over 100 µM and a TGI (SF-295 CNS) of over 100 µM. The TGI (SK-MEL-28 melanoma) was over 100 µM, the TGI (MDA-MB-435) was over 100 µM and the TGI (UACC-62 melanoma) was over 100 µM. For the same compound, the TGI (786-0 renal) was over 100 µM, the TGI (SW-620 colon) was over 100 µM and the TGI (SN12C renal) was over 100 µM. The TGI (OVCAR-5 ovarian) was over 100 µM, the TGI (SF-539 CNS) was 26.6 µM and the TGI (SF-268 CNS) was over 100 µM. For the same compound, the TGI (BT-549 breast) was over 100 µM, the TGI (A549 NSCLC) was over 100 µM and the TGI (MCF7 breast) was over 100 µM. For the same compound, the TGI (HS 578T breast) was over 100 µM, the TGI (U251 CNS) was over 100 µM and the TGI (OVCAR-3 ovarian) was over 100 µM. The TGI (LOX IMVI melanoma) was over 100 µM, the TGI (NCI-H460 lung) was over 100 µM and the TGI (CAKI-1 renal) was over 100 µM. The TGI (RPMI-8226 leukemia) was over 100 µM, the TGI (NCI/ADR-RES ovarian) was over 100 µM and the TGI (OVCAR-8 ovarian) was over 100 µM. For the same compound, the TGI (NCI-H522 lung) was over 100 µM, the TGI (HT29 colon) was over 100 µM and the TGI (UO-31 renal) was over 100 µM. The TGI (K-562 leukemia) was over 100 µM, the TGI (NCI-H23 lung) was over 100 µM and the TGI (T-47D breast) was over 100 µM. The TGI (A498 renal) was over 100 µM, the TGI (NCI-H226 lung) was over 100 µM and the TGI (HCC-2998 colon) was over 100 µM. It also gave a TGI (SNB-19 CNS) of over 100 µM, a TGI (OVCAR-4 ovarian) of over 100 µM and a TGI (HCT-15 colon) of over 100 µM. It also gave a TGI (SK-MEL-5 melanoma) of over 100 µM, a TGI (MDA-N) of over 100 µM and a TGI (SR leukemia) of over 100 µM. For the same compound, the TGI (HL-60(TB) leukemia) was over 100 µM, the TGI (MDA-MB-231 breast) was over 100 µM and the TGI (IGROV1 ovarian) was over 100 µM.

With `CN1CCN(c2ccc3[nH]c(C4=C(O)c5nc(CCl)n(C)c5C(=O)C4=O)nc3n2)CC1` the GI50 (PC-3 prostate) was 11.7 µM, the TGI (PC-3 prostate) was 50 µM and 29.1 µM and the GI50 (DU-145 prostate) was 21.9 µM. The TGI (DU-145 prostate) was 22.4 µM and 67 µM, the TGI (UACC-257 melanoma) was 31.9 µM and the GI50 (MALME-3M melanoma) was 13 µM. For the same compound, the TGI (MALME-3M melanoma) was 11.4 µM and 30 µM, the GI50 (MOLT-4 leukemia) was 2.25 µM and the TGI (MOLT-4 leukemia) was 50 µM and 7.68 µM. For the same compound, the GI50 (ACHN renal) was 5.13 µM, the TGI (ACHN renal) was 30.7 µM and 43.1 µM and the GI50 (HCT-116 colon) was 15.2 µM. The TGI (HCT-116 colon) was 16.1 µM and > 100 µM, the GI50 (HOP-62 NSCLC) was 20.7 µM and the TGI (HOP-62 NSCLC) was 19.7 µM and 53.5 µM. For the same compound, the GI50 (CCRF-CEM leukemia) was 15 µM, the TGI (CCRF-CEM leukemia) was > 50 µM and 36.4 µM and the GI50 (EKVX NSCLC) was 15.9 µM. For the same compound, the TGI (EKVX NSCLC) was 36.9 µM and 40.1 µM, the GI50 (RXF 393 renal) was 3.49 µM and the TGI (RXF 393 renal) was 9.92 µM and 16.6 µM. The GI50 (M14 melanoma) was 19.6 µM, the TGI (M14 melanoma) was 20.1 µM and 52.2 µM and the GI50 (COLO 205 colon) was 1.79 µM. The TGI (COLO 205 colon) was 28.1 µM and 3.62 µM, the TGI (SK-MEL-2 melanoma) was 23.5 µM and the TGI (SNB-75 CNS) was 18 µM. The GI50 (SK-OV-3 ovarian) was 19.8 µM, the TGI (SK-OV-3 ovarian) was 50 µM and 51.6 µM and the GI50 (KM12 colon) was 15.9 µM. For the same compound, the TGI (KM12 colon) was 21 µM and 35.9 µM, the GI50 (SF-295 CNS) was 24 µM and the TGI (SF-295 CNS) was 50 µM and 56.3 µM. For the same compound, the GI50 (SK-MEL-28 melanoma) was 16.1 µM, the TGI (SK-MEL-28 melanoma) was 50 µM and 34.8 µM and the GI50 (MDA-MB-435) was 12.6 µM. For the same compound, the TGI (MDA-MB-435) was 19.3 µM and 30.8 µM, the GI50 (UACC-62 melanoma) was 2.46 µM and the TGI (UACC-62 melanoma) was 19.4 µM and 7.37 µM. The GI50 (786-0 renal) was 6.05 µM, the TGI (786-0 renal) was 50 µM and > 100 µM and the GI50 (SW-620 colon) was 3.61 µM. For the same compound, the TGI (SW-620 colon) was 50 µM and > 100 µM, the GI50 (SN12C renal) was 16.9 µM and the TGI (SN12C renal) was 20.5 µM and > 100 µM. For the same compound, the GI50 (OVCAR-5 ovarian) was 20 µM, the TGI (OVCAR-5 ovarian) was 34.5 µM and 52.7 µM and the GI50 (SF-539 CNS) was 2.17 µM. For the same compound, the TGI (SF-268 CNS) was 49.1 µM, the GI50 (BT-549 breast) was 17.4 µM and the TGI (BT-549 breast) was 19.3 µM and 40.4 µM. For the same compound, the TGI (A549 NSCLC) was 50 µM and > 100 µM, the TGI (MCF7 breast) was 18.5 µM and the TGI (HS 578T breast) was 75.5 µM. For the same compound, the GI50 (U251 CNS) was 2.03 µM, the TGI (U251 CNS) was 16.3 µM and 4.12 µM and the TGI (OVCAR-3 ovarian) was 31.3 µM and 68.6 µM. The GI50 (LOX IMVI melanoma) was 3.07 µM, the TGI (LOX IMVI melanoma) was 15.2 µM and 7.43 µM and the TGI (NCI-H460 lung) was 49.3 µM. For the same compound, the GI50 (CAKI-1 renal) was 24.2 µM, the TGI (CAKI-1 renal) was 37.1 µM and 74.4 µM and the GI50 (RPMI-8226 leukemia) was 3.14 µM. The TGI (RPMI-8226 leukemia) was 50 µM and 15.2 µM, the GI50 (NCI/ADR-RES ovarian) was 88.6 µM and the TGI (NCI/ADR-RES ovarian) was over 100 µM. For the same compound, the GI50 (OVCAR-8 ovarian) was 4.83 µM, the TGI (OVCAR-8 ovarian) was 16.2 µM and 29.2 µM and the GI50 (NCI-H522 lung) was 3.54 µM. For the same compound, the TGI (NCI-H522 lung) was 3.29 µM and 12.2 µM, the GI50 (HT29 colon) was 13.7 µM and the TGI (HT29 colon) was 25.9 µM and 37.1 µM. The GI50 (UO-31 renal) was 21.8 µM, the TGI (UO-31 renal) was 13.3 µM and > 100 µM and the GI50 (K-562 leukemia) was 2.84 µM. The TGI (K-562 leukemia) was 50 µM and > 100 µM, the GI50 (NCI-H23 lung) was 18.9 µM and the TGI (NCI-H23 lung) was 30.4 µM and 44.3 µM. The GI50 (T-47D breast) was 2.15 µM, the TGI (T-47D breast) was 3.99 µM and 6.95 µM and the TGI (A498 renal) was 22.1 µM. The GI50 (NCI-H226 lung) was 18.3 µM, the TGI (NCI-H226 lung) was 36.2 µM and 37.7 µM and the TGI (HCC-2998 colon) was 21.4 µM. For the same compound, the GI50 (SNB-19 CNS) was 11.8 µM, the TGI (SNB-19 CNS) was 16.7 µM and 32.6 µM and the TGI (OVCAR-4 ovarian) was 44.7 µM and 33.7 µM. The TGI (HCT-15 colon) was 50 µM and > 100 µM, the TGI (SK-MEL-5 melanoma) was 50 µM and the GI50 (MDA-N) was 26.5 µM. For the same compound, the TGI (MDA-N) was 17.4 µM and > 100 µM, the TGI (SR leukemia) was 50 µM and the GI50 (HL-60(TB) leukemia) was 2.87 µM. For the same compound, the TGI (HL-60(TB) leukemia) was > 50 µM and 8.97 µM, the GI50 (MDA-MB-231 breast) was 3.99 µM and the TGI (MDA-MB-231 breast) was 25 µM and 14.8 µM. For the same compound, the GI50 (IGROV1 ovarian) was 24.5 µM and the TGI (IGROV1 ovarian) was 16 µM and 47.9 µM.
